Laboratory results from PMC11873939, “Target Identification with Live-Cell Photoaffinity Labeling and Mechanism of Action Elucidation of ARN23765, a Highly Potent CFTR Corrector” (Journal of Medicinal Chemistry, 2025).

What was measured:
F508del/R1070W-CFTR [1] = biological target: T1, F508del/R1070W-CFTR (Homo sapiens, UniProt P13569, DEL508-508/R1070W); test: Protein maturation assay (WB, band C/(C+B)) in transfected HEK293 cells; assay type: cell-based; conditions: HEK293, 24 h; ARN23765 10 nM, VX-661 3 μM
T1 construct: CFTR identification in pull-down studies and analysis of full-length CFTR in protein maturation assays; expressed in transfected cells; host or cells: HEK293 (transient)
Protocol: HEK293 cells were plated in 24-wells at around 80% of confluence and transfected with constructs coding for F508del-CFTR or mutants using JetPEI reagent (101000053, Polyplus Technology) following the manufacturer’s instructions. After 24 h, the correctors were added for a further 24 h. […] For binding site analysis experiments, the cells were kept either at 37 °C (Figure S8) or moved to 30 °C (Figure 9) during incubation with the selected correctors. VX-445 and corrector 3151 were mixed together as a control for maximal protein correction. DMSO (0.2%) was added to nontreated controls. After treatment, cells were lysed in RIPA buffer [50 mM tris-HCl pH 8, 150 mM NaCl, 1% NP40, 0.5% sodium deoxycolate, 0.1% SDS, 2.0 mM EDTA] and lysates were analyzed with WB, as described in the supplementary methods of the Supporting Information.

F508del/R1070W-CFTR [2] = biological target: T1, F508del/R1070W-CFTR; test: FLIPR membrane potential assay of CFTR channel activity in transfected HEK293 cells; assay type: cell-based; conditions: HEK293, 24 h; ARN23765 10 nM, VX-661 3 μM
Protocol: HS-YFP-based assay for CFTR activity
Twenty-four hours after seeding on 96-well plates, CFBE41o- cells stably over-expressing F508del-CFTR and the HS-YFP were treated with test compounds at different concentrations in the 3 nM-10 µM range.1 Cells treated with vehicle alone (DMSO) and with ARN23765, respectively, served as negative and positive controls. The following day, cells were washed with PBS containing (in mM) 137 NaCl, 2.7 KCl, 8.1 Na2HPO4, 1.5 KH2PO4, 1.0 CaCl2, and 0.5 MgCl2. Cells were then incubated for 25 min with […] of PBS plus forskolin (20 µM) and VX-770 (1 µM) to maximally stimulate F508del-CFTR. Cells were then transferred to a microplate reader (FluoStar Galaxy; BMG Labtech, Offenburg, Germany) for CFTR activity determination. The plate reader was equipped with high-quality excitation (HQ500/20X: 500 ± 10 nm) and emission (HQ535/30M: 535 ± 15 nm) filters for YFP (Chroma Technology). Each assay comprised a continuous 14 s fluorescence reading, 2 s before and 12 s after injection of […] of an iodide-containing solution (PBS with Cl- replaced by I-; final I- concentration […]). Data were normalized to the initial background-subtracted fluorescence. […]
Cell lysates or eluates from pull-down experiments were resolved by SDS-PAGE on 4-8 % tris-acetate gels (EA0378BOX, Life technologies) and were transferred into PVDF membranes (Immobilion-E IEVH00005, Millipore). […] Images were acquired with Chemidoc MP (BIO-RAD laboratories) and quantified with Image J software.
CFTR Channel function analysis by fluorometric imaging plate reader functional (FLIPR) assay FLIPR assay was performed as previously described.3 Briefly, HEK293 cells were seeded in 96-well plates (black, flat bottom, Corning) and transfected with mutated CFTR constructs. […]
µM) for 24 h at 30 °C or 37 °C. […] The plate was then read in a fluorescence plate reader (SpectraMax i3, Molecular Devices) at 37 °C (excitation: 530 nm, emission: 560 nm). […] CFTR-mediated depolarization was detected as an increase in fluorescence. […] The peak changes in fluorescence were normalized to fluorescence immediately […]

T1 sequence (P13569 with tags, fused parts or gaps DEL508-508/R1070W): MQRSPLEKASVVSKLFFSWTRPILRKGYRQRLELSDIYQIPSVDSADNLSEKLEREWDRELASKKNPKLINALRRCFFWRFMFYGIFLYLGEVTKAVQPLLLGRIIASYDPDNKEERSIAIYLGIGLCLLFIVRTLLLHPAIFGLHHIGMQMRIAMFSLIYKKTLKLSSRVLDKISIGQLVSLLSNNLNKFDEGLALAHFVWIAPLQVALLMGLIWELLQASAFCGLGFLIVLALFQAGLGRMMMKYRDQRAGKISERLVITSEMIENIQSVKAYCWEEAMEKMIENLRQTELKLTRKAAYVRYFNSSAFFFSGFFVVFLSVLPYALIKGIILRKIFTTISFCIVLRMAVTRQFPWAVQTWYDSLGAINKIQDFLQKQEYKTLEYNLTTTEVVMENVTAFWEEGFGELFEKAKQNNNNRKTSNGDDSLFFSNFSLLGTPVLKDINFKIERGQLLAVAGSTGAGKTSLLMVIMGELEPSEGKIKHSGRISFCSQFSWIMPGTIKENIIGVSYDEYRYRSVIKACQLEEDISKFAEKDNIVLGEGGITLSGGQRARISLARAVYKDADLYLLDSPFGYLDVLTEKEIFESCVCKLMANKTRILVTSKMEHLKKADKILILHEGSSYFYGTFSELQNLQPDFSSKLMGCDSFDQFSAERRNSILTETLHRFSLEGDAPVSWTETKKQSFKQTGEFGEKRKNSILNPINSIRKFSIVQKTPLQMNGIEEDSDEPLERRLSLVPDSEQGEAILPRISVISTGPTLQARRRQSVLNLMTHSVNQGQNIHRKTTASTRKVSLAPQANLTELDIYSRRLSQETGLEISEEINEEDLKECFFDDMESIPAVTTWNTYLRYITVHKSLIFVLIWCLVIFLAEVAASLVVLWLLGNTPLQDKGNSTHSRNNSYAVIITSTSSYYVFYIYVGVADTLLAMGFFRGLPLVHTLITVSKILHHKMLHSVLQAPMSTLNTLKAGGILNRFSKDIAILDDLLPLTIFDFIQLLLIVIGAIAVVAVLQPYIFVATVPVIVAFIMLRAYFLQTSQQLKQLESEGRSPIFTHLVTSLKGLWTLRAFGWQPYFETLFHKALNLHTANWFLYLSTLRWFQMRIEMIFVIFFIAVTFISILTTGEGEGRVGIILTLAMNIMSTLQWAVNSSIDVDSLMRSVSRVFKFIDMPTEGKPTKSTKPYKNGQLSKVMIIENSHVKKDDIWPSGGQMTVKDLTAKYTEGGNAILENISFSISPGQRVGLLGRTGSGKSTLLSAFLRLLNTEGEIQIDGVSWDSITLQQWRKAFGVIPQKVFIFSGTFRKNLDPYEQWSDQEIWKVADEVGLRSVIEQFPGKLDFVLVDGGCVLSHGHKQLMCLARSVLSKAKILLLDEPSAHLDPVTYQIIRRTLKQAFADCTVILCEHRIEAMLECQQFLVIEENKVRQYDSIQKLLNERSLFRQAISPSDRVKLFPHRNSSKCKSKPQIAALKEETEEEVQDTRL

F508del/R1070W protein maturation (F508del/R1070W-CFTR [1]): further enhanced
F508del/R1070W channel activity (FLIPR) (F508del/R1070W-CFTR [2]): further enhanced
SMILES: CC(C)(CO)c1cc2cc(NC(=O)C3(c4ccc5c(c4)OC(F)(F)O5)CC3)c(F)cc2n1C[C@@H](O)CO [VX-661, tezacaftor, reference compound]
